Assay results from PMC7926264 (Clinical cancer research : an official journal of the …, 2020).

Key:
[1] = cited from earlier work
[2] = Afatinib plasma pharmacokinetics and human equivalent dose in nude mice; assay type: in vivo
[3] = Human plasma protein binding; assay type: in vitro ADME
[4] = system: Calu-3 cells (HER2 amp); assay: cells; assay type: cell-based; conditions: Homo sapiens, Calu-3, 72 h, read-out: IC50 proliferation
[5] = Mouse plasma protein binding; assay type: in vitro ADME
[6] = system: H2170 cells (HER2 amp); assay: cells; assay type: cell-based; conditions: Homo sapiens, NCI-H2170, 72 h, read-out: IC50 proliferation
[7] = system: MDA-MB-175vIII cells (DOC4-NRG1 fusion); assay: cells; assay type: cell-based; conditions: Homo sapiens, 72 h, read-out: IC50 proliferation
[8] = Clinical plasma pharmacokinetics of afatinib; assay type: in vivo; conditions: human, po, 40 mg
[9] = system: H1781 cells (HER2 ex20ins); assay: cells; assay type: cell-based; conditions: Homo sapiens, NCI-H1781, 72 h, read-out: IC50 proliferation
[10] = system: H661 cells (HER4 overexpression); assay: cells; assay type: cell-based; conditions: Homo sapiens, NCI-H661, 72 h, read-out: IC50 proliferation
[11] = system: CUTO18 cells (EGFR exon 20 insertion p.S768_D770dupSVD); assay: cells; conditions: Homo sapiens, 72 h, read-out: IC50 proliferation
[12] = system: CUTO14 cells (EGFR exon 20 insertion p.A767_V769dupASV); assay: cells; conditions: Homo sapiens, CUTO14, 72 h, read-out: IC50 proliferation
[13] = system: CUTO17 cells (EGFR exon 20 insertion p.N771_773dupNPH); assay: cells; conditions: Homo sapiens, CUTO17, 72 h, read-out: IC50 proliferation
[14] = system: EGFR phosphorylation (pEGFR) in CUTO14, CUTO17, and CUTO18

SMILES	Cmax in patients at steady state ([1]; 40mg PO daily)	plasma AUCtotal ([1]; human, 40 mg PO once daily)	Cmax ([1]; read-out: Cmax in patients at steady state, 40mg PO daily)	human equivalent dose (HED) in nude mice ([2]; extrapolation by linear regression to total AUC of 468 ng*hr/mL)	plasma AUCtotal required in mice to replicate human AUCfree ([2]; mice)	fraction unbound [3]	IC50 [4]	fraction unbound [5]	IC50 [6]	IC50 [7]	AUC [8]	IC50 [9]	IC50 [10]	IC50 [11]	IC50 [12]	IC50 [13]	inhibition of EGFR phosphorylation (pEGFR) [14]
CN(C)C/C=C/C(=O)Nc1cc2c(Nc3ccc(F)c(Cl)c3)ncnc2cc1O[C@H]1CCOC1 [Afatinib]	38 ng/mL	324 ng·h/mL	78 nM	6 mg/kg	468 ng·h/mL	0.0821	31 ± 11.4 nM	0.0577	11 ± 2.9 nM	1.2 ± 3.1 nM	27 ng·h/mL	66 nM					
C=CC(=O)Nc1cc(Nc2nccc(-c3cn(C)c4ccccc34)n2)c(OC)cc1N(C)CCN(C)C [Osimertinib]							188 ± 35.2 nM		113 ± 4.4 nM			406 nM	4518 ± 2 nM	647 ± 6.7 nM	303 nM	426 ± 21.5 nM	showed inhibition at higher concentrations
